Some results are limits rather than exact numbers.

Series [1] can be described thus: Inhibition of HCV NS5B J4 delta 21 polymerase. The arrangement: species or system Hepacivirus hominis.
Series [2] in a line: Inhibition of HCV NS5B RB01 polymerase. The arrangement: species or system Hepacivirus hominis.
The next series concerns Hepatitis C virus. Kind of series: Inhibition of HCV replicon by cell based assay. It is filed as functional, organism-based, Hepacivirus hominis.
A short description of series [3]: Permeability across artificial membrane by PAMPA assay. The class given is ADME. Conditions: read-out: permeability. (In general: PAMPA measures passive passage across an artificial lipid membrane.)
A further series concerns Hepacivirus hominis. Kind of series: Inhibition of HCV NS5B J4 delta 21 polymerase at 10 uM.

Consider `CC(C)C[C@@]1(C(=O)Nc2ccccc2)C[C@H](C(=O)O)[C@H](c2cccs2)N1C(=O)c1ccc(C(F)(F)F)cc1`, for which the 50% inhibitory concentration (IC50) (as a rule, the midpoint of a concentration-inhibition curve) in series [1] is > 20 µM. Turning to `CNC(=O)[C@H]1C[C@@](CC(C)C)(C(=O)O)N(C(=O)c2ccc(C(C)(C)C)cc2)[C@H]1c1nccs1`, the IC50 in series [2] came out at 22 µM. Take `CC(C)C[C@@]1(C(=O)O)C[C@H](C(N)=O)[C@H](c2nccs2)N1C(=O)c1ccc(C(C)(C)C)cc1` (stereo in doubt; (+)32): the half-maximal inhibitory concentration (IC50) is 0.07 µM in series [1] and 3.8 µM in series [2]. Take `CC(C)C[C@@]1(C(=O)O)C[C@H](C(N)=O)[C@H](c2cccs2)N1C(=O)c1ccc(C(C)(C)C)cc1`: the IC50 in series [1] was 0.33 µM. This counts as sub-micromolar. Same read-out and setting: with `COC(=O)[C@]1(CC(C)C)C[C@H](C(=O)O)[C@H](c2cccs2)N1C(=O)c1ccc(C(F)(F)F)cc1` the figure was > 20 µM. On to `CC(C)C[C@@]1(C(=O)O)C[C@H](C(=O)Nc2ccccc2)[C@H](c2nccs2)N1C(=O)c1ccc(C(C)(C)C)cc1` (stereo in doubt; (+)41), for which the concentration for half-maximal inhibition (IC50) in series [2] turned out to be 0.5 µM; in the series with Hepatitis C virus, 30 µM. In series [1], `CC(C)C[C@@]1(C(N)=O)C[C@H](C(=O)O)[C@H](c2cccs2)N1C(=O)c1ccc(C(F)(F)F)cc1` gave a concentration for half-maximal inhibition (IC50) of 8.1 µM. On the same count and under the same terms, with `CC(C)C[C@@]1(C(=O)O)C[C@H](C(=O)O)[C@H](c2nccs2)N1C(=O)c1ccc(C(C)(C)C)cc1` (stereo in doubt; (-)28) the figure was 2.36 µM; with `CC(C)C[C@@]1(C(=O)NC(C)C)C[C@H](C(=O)O)[C@H](c2cccs2)N1C(=O)c1ccc(C(F)(F)F)cc1`, > 20 µM. Still for that read-out and setting: with `CC(C)C[C@@]1(C(=O)O)C[C@H](C(N)=O)[C@H](c2cccs2)N1C(=O)c1ccc(C(F)(F)F)cc1` (stereo in doubt; (+)29) the figure was 2.23 µM. `CC(C)C[C@@]1(C(=O)O)C[C@H](C(=O)NS(=O)(=O)c2ccccc2)[C@H](c2nccs2)N1C(=O)c1ccc(C(C)(C)C)cc1`: the IC50 worked out at 0.5 µM in series [1] and 3.15 µM in series [2]. The compound `CC(C)C[C@@]1(C(=O)O)C[C@H](C(=O)O)[C@H](c2cccs2)N1C(=O)c1ccc(C(F)(F)F)cc1` (stereo in doubt; (-)1) registered a half-maximal inhibitory concentration (IC50) in series [1] of 18 µM.

For the compound `CC(C)C[C@@]1(C(=O)O)C[C@H](C(=O)Nc2ccccc2)[C@H](c2nccs2)N1C(=O)c1ccc(C(C)(C)C)cc1` (stereo in doubt; 41), the results for the 50% inhibitory concentration (IC50) (in series [1]; in series [2]; in the series with Hepatitis C virus (Hepatitis C virus)) were 0.16 µM, 3.1 µM and 45 µM, respectively. Turning to `CC(C)C[C@@]1(C(=O)O)C[C@H](C(=O)O)[C@H](c2cccs2)N1C(=O)c1ccc(C(C)(C)C)cc1`, the IC50 in series [1] came out at 0.75 µM.

On to `CC(C)C[C@@]1(C(=O)O)C[C@H](C(=O)O)[C@H](c2nccs2)N1C(=O)c1ccc(C(F)(F)F)cc1`, for which inhibition in series [1] was half-maximal at 0.45 µM (IC50). `CC(C)C[C@@]1(C(=O)O)C[C@H](C(=O)NS(C)(=O)=O)[C@H](c2nccs2)N1C(=O)c1ccc(C(C)(C)C)cc1` had a 50% inhibitory concentration (IC50) in series [1] of 0.04 µM. The Papp in series [3] was < 0.03 ×10⁻⁶ cm/s.

With `CC(C)C[C@@]1(C(=O)O)C[C@H](C(=O)Nc2ccccc2)[C@H](c2nccs2)N1C(=O)c1ccc(C(C)(C)C)cc1` (stereo in doubt; (-)41), in series [2], the IC50 is > 100 µM. In the series with Hepatitis C virus (Hepatitis C virus), the cytotoxic concentration (CC50) (as a rule, the concentration at which the toxic effect on the cells reaches its halfway point) was > 200 µM. Consider `CNC(=O)[C@]1(CC(C)C)C[C@H](C(=O)O)[C@H](c2cccs2)N1C(=O)c1ccc(C(F)(F)F)cc1`, for which the IC50 in series [1] was > 20 µM. Consider `COC(=O)[C@H]1C[C@@](CC(C)C)(C(=O)OC)N(C(=O)c2ccc(C(F)(F)F)cc2)[C@H]1c1cccs1`, for which the IC50 in series [1] was > 20 µM. The same measure, in the same setting: with `CC(C)C[C@@]1(C(=O)O)C[C@H](C(N)=O)[C@H](c2cccs2)N1C(=O)c1ccc(C(F)(F)F)cc1` (stereo in doubt; 19) the figure was 4.4 µM. On to `CC(C)C[C@@]1(C(=O)O)C[C@H](C(N)=O)[C@H](c2nccs2)N1C(=O)c1ccc(C(C)(C)C)cc1` (stereo in doubt; (-)32), for which the midpoint of inhibition in series [1], the IC50, lay at 2.5 µM. This IC50 is about 1.8-fold lower than that of the compound before.

Turning to `CC(C)C[C@@]1(C(=O)O)C[C@H](C(N)=O)[C@H](c2nccs2)N1C(=O)c1ccc(C(C)(C)C)cc1` (stereo in doubt; 32), the IC50 in series [1] was 0.08 µM; in series [2] it was 4.4 µM.

Regarding `CC(C)C[C@@]1(C(=O)O)C[C@H](C(=O)O)[C@H](c2nccs2)N1C(=O)c1ccc(C(C)(C)C)cc1` (stereo in doubt; 28), the IC50 in series [1] was 0.07 µM; in series [2] it was 3.8 µM. In the case of `CC(C)C[C@@]1(C(=O)NCc2ccccc2)C[C@H](C(=O)O)[C@H](c2cccs2)N1C(=O)c1ccc(C(F)(F)F)cc1`, the half-inhibitory concentration (IC50) in series [1] was > 20 µM. On the same count and under the same terms, with `CC(C)C[C@@]1(C(=O)OCc2ccccc2)C[C@H](C(=O)O)[C@H](c2cccs2)N1C(=O)c1ccc(C(F)(F)F)cc1` the figure was > 20 µM. In the case of `CC(C)C[C@@]1(C(=O)O)C[C@H](C(=O)NCc2ccccc2)[C@H](c2nccs2)N1C(=O)c1ccc(C(C)(C)C)cc1`, the figures for the IC50 in series [1] and in series [2] were 8.29 µM and 68 µM, respectively.

On to `CC(C)C[C@@]1(C(=O)O)C[C@H](C(N)=O)[C@H](c2nccs2)N1C(=O)c1ccc(C(F)(F)F)cc1`, for which the IC50 in series [1] worked out at 2.05 µM. For `CC(C)C[C@@]1(C(=O)O)C[C@H](C(=O)NS(C)(=O)=O)[C@H](c2nccs2)N1C(=O)c1ccc(C(F)(F)F)cc1`, the IC50 in series [1] was determined as 0.41 µM. `CC(C)C[C@@]1(C(=O)O)C[C@H](C(=O)O)[C@H](c2cccs2)N1C(=O)c1ccc(C(F)(F)F)cc1` (stereo in doubt; 1) displayed an IC50 in series [2] of 20 µM. Consider `CCNC(=O)[C@]1(CC(C)C)C[C@H](C(=O)O)[C@H](c2cccs2)N1C(=O)c1ccc(C(F)(F)F)cc1`, for which the IC50 in series [1] was > 20 µM. As to `CC(C)C[C@@]1(C(=O)O)C[C@H](C(=O)O)[C@H](c2cccs2)N1C(=O)c1ccc(C(F)(F)F)cc1` (stereo in doubt; (+)-1), the IC50 in series [1] was 0.3 µM; in series [2], 11.9 µM.

On to `CC(C)C[C@@]1(C(=O)O)C[C@H](C(=O)O)[C@H](c2nccs2)N1C(=O)c1ccc(C(C)(C)C)cc1` (stereo in doubt; (+)28), for which the half-inhibitory concentration (IC50) in series [1] is 0.03 µM; in series [2], 2.1 µM. In series [1], `CC(C)C[C@@]1(C(=O)O)C[C@H](C(=O)NS(=O)(=O)C(F)(F)F)[C@H](c2cccs2)N1C(=O)c1ccc(C(F)(F)F)cc1` yielded an IC50 of 0.2 µM. On to `CC(C)C[C@@]1(C(=O)O)C[C@H](C(=O)NS(C)(=O)=O)[C@H](c2cccs2)N1C(=O)c1ccc(C(F)(F)F)cc1`, for which, in series [1], the concentration for half-maximal inhibition (IC50) worked out at 0.23 µM. Take `COC(=O)[C@H]1C[C@@](CC(C)C)(C(=O)O)N(C(=O)c2ccc(C(F)(F)F)cc2)[C@H]1c1cccs1`: the half-maximal inhibitory concentration (IC50) in series [1] is > 20 µM.

`CC(C)C[C@@]1(CO)C[C@H](C(=O)O)[C@H](c2cccs2)N1C(=O)c1ccc(C(F)(F)F)cc1`: in the series on Hepacivirus hominis, the inhibition (usually how much of the control response was suppressed) came to 0%. In the case of `CC(C)C[C@@]1(C(=O)O)C[C@H](C(=O)NS(=O)(=O)Cc2ccccc2)[C@H](c2nccs2)N1C(=O)c1ccc(C(C)(C)C)cc1`, the values for the half-maximal inhibitory concentration (IC50) in series [1] and in series [2] were 0.55 µM and 4.23 µM, respectively. In the series with Hepacivirus hominis, `CC(C)C[C@@]1(C(=O)O)C[C@H](CO)[C@H](c2cccs2)N1C(=O)c1ccc(C(F)(F)F)cc1` displayed an inhibition of 51%.

As for `CC(C)C[C@@]1(C(=O)O)C[C@H](C(N)=O)[C@H](c2cccs2)N1C(=O)c1ccc(C(F)(F)F)cc1` (stereo in doubt; (-)29), in series [1], the IC50 was > 30 µM.

For the origin of these results see ChEMBL document CHEMBL1148853, “Studies on acyl pyrrolidine inhibitors of HCV RNA-dependent RNA polymerase to identify a molecule with replicon antiviral activity” (Bioorg Med Chem Lett, 2007).
